In patent US9067966B2, “Lupeol-type triterpene derivatives as antivirals” (priority 2009, dated 2015):
Like-named read-outs stand apart in the source and are kept apart here.

Columns and labels:
Format in all cases: cell-based
in vitro = conditions: human, CC50
Method: (§1) Compound was dissolved in DMSO to make 30 mM stock. Then the 30 mM stock is further diluted to 4 mM using DMSO. The 4 mM stock was used as the top concentration to carry out an 11-point, 3-fold dilution scheme using DMSO in a 96-well plate to make the compound dose plate. Compounds in the dose plate were transferred to a new 96-well plate (working plate) containing PBS with 0.05% pluronic acid. From this working plate, the compound solution was transferred to the 384-well assay plates.
For cytotoxicity assay the same amount of MT2 cells as in antivirus assay but without HIV-1 virus were added to the cytotoxicity plates. The cytotoxicity was measured by Cell Titer-Glo cell viability assay (Promega).

HIV-1 strain IIIB = test: Anti-HIV-1 luciferase indicator assay in MT2 cells, IIIB; conditions: viral strain II B; for IC50: Human immunodeficiency virus 1, IIIB, MT2, MT2 cells, read-out: IC50; for TI / Safety Index (CC50/IC50): MT2 cells
Method: as §1
(§2) Control compounds used in compound control wells were prepared and added to assay plates individually.
(§3) MT2 cells were mixed with HIV-1 strain NL4-3 (or IIIB, or CNHN24) and the cell/virus mixture was added to the aforementioned antivirus assay plates. After incubation in a 37° C., 5% CO2 incubator, the supernatant from the assay plate was transferred to a new 384-well plate containing the indicator cells with a fire fly luciferase gene under HIV-1 LTR control. The expression level of luciferase was related to HIV-1 infectivity and was measured by Bright-Glo kit (Promega).
(§4) Therapeutic index (TI) was determined by taking ratio of CC50/IC50

HIV-1 strain CNHN24 = test: Anti-HIV-1 luciferase indicator assay in MT2 cells, CNHN24; conditions: viral strain CNHN24; for IC50: Human immunodeficiency virus 1, MT2, MT2 cells, read-out: IC50; for TI / Safety Index (CC50/IC50): MT2 cells
Method: as §1, §2, §3, §4

HIV-1 strain NL4-3 = test: Anti-HIV-1 luciferase indicator assay in MT2 cells, NL4-3; conditions: viral strain NL4-3; for IC50: Human immunodeficiency virus 1, NL43, MT2, MT2 cells; for TI / Safety Index (CC50/IC50): MT2 cells
Method: as §1, §2, §3, §4

## C=C(C)[C@@H]1CC[C@]2(C(=O)N[C@H]3C[C@@H](C(=O)N4CCOCC4)C3(C)C)CC[C@]3(C)[C@H](CC[C@@H]4[C@@]5(C)CC[C@H](O)C(C)(C)[C@@H]5CC[C@]43C)[C@@H]12 [Example 8, (1R,3aS,5aR,5bR,7aR,9S,11aR,11bR,13aR,13bR)-N-((1S,3R)-2,2-dimethyl-3-(morpholine-4-carbonyl)cyclobutyl)-9-hydroxy-5a,5b,8,8,11a-pentamethyl-1-(prop-1-en-2-yl)icosahydro-1H-cyclopenta[a]chrysene-3a-carboxamide]
In vitro
  CC50: 20 µM
HIV-1 strain IIIB
  IC50: 3140 nM
  TI / Safety Index (CC50/IC50): 6
HIV-1 strain CNHN24
  IC50: 2830 nM
  TI / Safety Index (CC50/IC50): 7
HIV-1 strain NL4-3; read-out: IC50
  IC50: 2200 nM
HIV-1 strain NL4-3
  TI / Safety Index (CC50/IC50): 9

## C=C(C)[C@@H]1CC[C@]2(C(=O)N[C@H]3C[C@@H](C(=O)N4CCOCC4)C3(C)C)CC[C@]3(C)[C@H](CC[C@@H]4[C@@]5(C)CC[C@H](OC(=O)CC(C)(C)C(=O)O)C(C)(C)[C@@H]5CC[C@]43C)[C@@H]12 [Example 9, 4-((1R,3aS,5aR,5bR,7aR,9S,11aR,11bR,13aR,13bR)-3a-((1S,3R)-2,2-dimethyl-3-(morpholine-4-carbonyl)cyclobutylcarbamoyl)-5a,5b,8,8,11a-pentamethyl-1-(prop-1-en-2-yl)icosahydro-1H-cyclopenta[a]chrysen-9-yloxy)-2,2-dimethyl-4-oxobutanoic acid]
In vitro
  CC50: > 20 µM
HIV-1 strain IIIB
  IC50: 7 nM
  TI / Safety Index (CC50/IC50): 2658
HIV-1 strain CNHN24
  IC50: 8 nM
  TI / Safety Index (CC50/IC50): 2429
HIV-1 strain NL4-3
  IC50: 5 nM
  TI / Safety Index (CC50/IC50): 3579

## C=C(C)[C@@H]1CC[C@]2(C(=O)N[C@H]3C[C@@H](C(=O)N4CCCCC4)C3(C)C)CC[C@]3(C)[C@H](CC[C@@H]4[C@@]5(C)CC[C@H](O)C(C)(C)[C@@H]5CC[C@]43C)[C@@H]12 [Example 11, (1R,3aS,5aR,5bR,7aR,9S,11aR,11bR,13aR,13bR)-N-((1S,3R)-2,2-dimethyl-3-(piperidine-1-carbonyl)cyclobutyl)-9-hydroxy-5a,5b,8,8,11a-pentamethyl-1-(prop-1-en-2-yl)icosahydro-1H-cyclopenta[a]chrysene-3a-carboxamide]
In vitro
  CC50: > 20 µM
HIV-1 strain IIIB
  IC50: 5670 nM
  TI / Safety Index (CC50/IC50): 3.5
HIV-1 strain CNHN24
  IC50: 5880 nM
  TI / Safety Index (CC50/IC50): 3.4
HIV-1 strain NL4-3; read-out: IC50
  IC50: 4250 nM
HIV-1 strain NL4-3
  TI / Safety Index (CC50/IC50): 4.7

## C=C(C)[C@@H]1CC[C@]2(C(=O)N[C@H]3C[C@@H](C(=O)N4CCCCC4)C3(C)C)CC[C@]3(C)[C@H](CC[C@@H]4[C@@]5(C)CC[C@H](OC(=O)CC(C)(C)C(=O)O)C(C)(C)[C@@H]5CC[C@]43C)[C@@H]12 [Example 12, 4-((1R,3aS,5aR,5bR,7aR,9S,11aR,11bR,13aR,13bR)-3a-((1S,3R)-2,2-dimethyl-3-(piperidine-1-carbonyl)cyclobutylcarbamoyl)-5a,5b,8,8,11a-pentamethyl-1-(prop-1-en-2-yl)icosahydro-1H-cyclopenta[a]chrysen-9-yloxy)-2,2-dimethyl-4-oxobutanoic acid]
In vitro
  CC50: > 20 µM
HIV-1 strain IIIB
  IC50: 29 nM
  TI / Safety Index (CC50/IC50): 227
HIV-1 strain CNHN24
  IC50: 17 nM
  TI / Safety Index (CC50/IC50): 383
HIV-1 strain NL4-3
  IC50: 21 nM
  TI / Safety Index (CC50/IC50): 316

## C=C(C)[C@@H]1CC[C@]2(C(=O)N[C@@H]3CC[C@H](CN4CCC(Cc5ccccc5)CC4)C3)CC[C@]3(C)[C@H](CC[C@@H]4[C@@]5(C)CC[C@H](OC(=O)CCCC(=O)O)C(C)(C)[C@@H]5CC[C@]43C)[C@@H]12 [Example 33, 5-((1R,3aS,5aR,5bR,7aR,9S,11aR,11bR,13aR,13bR)-3a-((1R,3S)-3-((4-benzylpiperidin-1-yl)methyl)cyclopentylcarbamoyl)-5a,5b,8,8,11a-pentamethyl-1-(prop-1-en-2-yl)icosahydro-1H-cyclopenta[a]chrysen-9-yloxy)-5-oxopentanoic acid]
In vitro
  CC50: 20 µM
HIV-1 strain IIIB
  IC50: 6700 nM
  TI / Safety Index (CC50/IC50): 2.98
HIV-1 strain CNHN24
  IC50: 6700 nM
  TI / Safety Index (CC50/IC50): 2.98
HIV-1 strain NL4-3; read-out: IC50
  IC50: 6700 nM
HIV-1 strain NL4-3
  TI / Safety Index (CC50/IC50): 2.98

## C=C(C)[C@@H]1CC[C@]2(C(=O)N[C@@H]3CC[C@H](CN4CCN(CC)CC4)C3)CC[C@]3(C)[C@H](CC[C@@H]4[C@@]5(C)CC[C@H](OC(=O)CC(C)(C)C(=O)O)C(C)(C)[C@@H]5CC[C@]43C)[C@@H]12 [Example 36, 4-((1R,3aS,5aR,5bR,7aR,9S,11aR,11bR,13aR,13bR)-3a-((1R,3S)-3-((4-ethylpiperazin-1-yl)methyl)cyclopentylcarbamoyl)-5a,5b,8,8,11a-pentamethyl-1-(prop-1-en-2-yl)icosahydro-1H-cyclopenta[a]chrysen-9-yloxy)-2,2-dimethyl-4-oxobutanoic acid]
In vitro
  CC50: > 20 µM
HIV-1 strain IIIB
  IC50: 4 nM
  TI / Safety Index (CC50/IC50): 5000
HIV-1 strain CNHN24
  IC50: 5 nM
  TI / Safety Index (CC50/IC50): 4000
HIV-1 strain NL4-3; read-out: IC50
  IC50: 5 nM
HIV-1 strain NL4-3
  TI / Safety Index (CC50/IC50): 4000

## C=C(C)[C@@H]1CC[C@]2(C(=O)N3CCN(CC)CC3)CC[C@]3(C)[C@H](CC[C@@H]4[C@@]5(C)CC[C@H](OC(=O)C6CC(C(=O)O)C6(C)C)C(C)(C)[C@@H]5CC[C@]43C)[C@@H]12 (stereo partly drawn) [Example 54, 3-(((1R,3aS,5aR,5bR,7aR,9S,11aR,11bR,13aR,13bR)-3a-(4-ethylpiperazine-1-carbonyl)-5a,5b,8,8,11a-pentamethyl-1-(prop-1-en-2-yl)icosahydro-1H-cyclopenta[a]chrysen-9-yloxy)carbonyl)-2,2-dimethylcyclobutanecarboxylic acid]
In vitro
  CC50: > 20 µM
HIV-1 strain IIIB
  IC50: 5 nM
  TI / Safety Index (CC50/IC50): 4000
HIV-1 strain CNHN24
  IC50: 24 nM
  TI / Safety Index (CC50/IC50): 833
HIV-1 strain NL4-3; read-out: IC50
  IC50: 13 nM
HIV-1 strain NL4-3
  TI / Safety Index (CC50/IC50): 1538

## C=C(C)[C@@H]1CC[C@]2(C(=O)N3CCC(Cc4ccccc4)(C(=O)OCC)CC3)CC[C@]3(C)[C@H](CC[C@@H]4[C@@]5(C)CC[C@H](OC(=O)CC(C)(C)C(=O)O)C(C)(C)[C@@H]5CC[C@]43C)[C@@H]12 [Example 57, 4-((1R,3aS,5aR,5bR,7aR,9S,11aR,11bR,13aR,13bR)-3a-(4-benzyl-4-(ethoxycarbonyl)piperidine-1-carbonyl)-5a,5b,8,8,11a-pentamethyl-1-(prop-1-en-2-yl)icosahydro-1H-cyclopenta[a]chrysen-9-yloxy)-2,2-dimethyl-4-oxobutanoic acid]
In vitro
  CC50: > 20 µM
HIV-1 strain IIIB
  IC50: 590 nM
  TI / Safety Index (CC50/IC50): 33
HIV-1 strain CNHN24
  IC50: 1070 nM
  TI / Safety Index (CC50/IC50): 20
HIV-1 strain NL4-3; read-out: IC50
  IC50: 857 nM
HIV-1 strain NL4-3
  TI / Safety Index (CC50/IC50): 23

## C=C(C)[C@@H]1CC[C@]2(C(=O)N3CCC(CC)(C(=O)OCC)CC3)CC[C@]3(C)[C@H](CC[C@@H]4[C@@]5(C)CC[C@H](OC(=O)CC(C)(C)C(=O)O)C(C)(C)[C@@H]5CC[C@]43C)[C@@H]12 [Example 74, 4-((1R,3aS,5aR,5bR,7aR,9S,11aR,11bR,13aR,13bR)-3a-(4-(ethoxycarbonyl)-4-ethylpiperidine-1-carbonyl)-5a,5b,8,8,11a-pentamethyl-1-(prop-1-en-2-yl)icosahydro-1H-cyclopenta[a]chrysen-9-yloxy)-2,2-dimethyl-4-oxobutanoic acid]
In vitro
  CC50: 7.76 µM
HIV-1 strain IIIB
  IC50: 86 nM
  TI / Safety Index (CC50/IC50): 90
HIV-1 strain CNHN24
  IC50: 163 nM
  TI / Safety Index (CC50/IC50): 47
HIV-1 strain NL4-3; read-out: IC50
  IC50: 165 nM
HIV-1 strain NL4-3
  TI / Safety Index (CC50/IC50): 47
